Assay results published in US11795460B2, “Compositions and methods for TTR gene editing and treating ATTR amyloidosis” (Intellia Therapeutics, Inc., priority 2017, dated 2023).

Legend:
TTR [1] = assay: TTR editing in HEK293_Cas9 cells transfected with dgRNAs (Table 4); assay type: cell-based, human; details: HEK293_Cas9 cells (constitutively express Spy Cas9) transfected with dgRNAs
Method in brief: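 Spy Cas9-expressing HEK293 cells were transfected by lipofection with crRNA (25 nM) plus trRNA (25 nM) and harvested at 24, 48 or 72 h. The target site was PCR-amplified and sequenced on MiSeq. Percent editing is reads with indels or substitutions over total reads.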

TTR [2] = assay: TTR editing in primary human hepatocytes transfected with Spy Cas9 mRNA and dgRNAs (Table 9); assay type: cell-based; details: dgRNA co-transfected with Spy Cas9 mRNA (SEQ ID NO:2)
Method in brief: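 PHH sequentially lipofected with Spy Cas9 mRNA (100 ng), then crRNA plus tracrRNA (25 nM each) dual-guide lipoplex. Cells harvested 24, 48 or 72 h post-transfection; TTR target amplicons sequenced on Illumina MiSeq, editing given as percent reads with indels or substitutions over total reads.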

off-target genomic sites = assay: Off-target oligo insertion based assay in HEK293_Cas9 cells, dgRNAs and sgRNAs (Tables 23, 24); assay type: cell-based, human; details: Table 23; TTR dgRNAs in HekCas9 cells, oligo insertion based assay
Method in brief: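 In HEK293 cells constitutively expressing Spy Cas9, crRNA (15 nM) plus trRNA (15 nM), or modified sgRNAs, were lipofected with donor oligo (10 nM). Genomic DNA was collected at 24 h, and oligo-insertion libraries were sequenced on MiSeq/HiSeq to map potential off-target cleavage sites.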

Sequence | Avg % Deletion (TTR [1]) [%] | Avg % Edit (TTR [1]) [%] | Avg % Insert (TTR [1]) [%] | Avg % Deletion (TTR [2]) [%] | Avg % Edit (TTR [2]) [%] | Avg % Insert (TTR [2]) [%] | # Sites (off-target integration sites detected) (off-target genomic sites)
UGGACUGGUAUUUGUGUCUG (tested as dual guide RNA, chemistry not given here) [CR003340] | 14.50 | 42.38 | 27.88 | 23.17 | 24.97 | 1.83 | 0
AUUGGUGACGACAGCCGUGG (tested as dual guide RNA, chemistry not given here) [CR003389] | 23.87 | 34.18 | 10.30 | 2.83 | 44.27 | 41.47 | 2
CCGUGGUGGAAUAGGAGUAG (tested as dual guide RNA, chemistry not given here) [CR003386] | 30.18 | 33.12 | 2.94 | 0.13 | 8.27 | 8.20 | 1
GACGACAGCCGUGGUGGAAU (tested as dual guide RNA, chemistry not given here) [CR003388] | 17.82 | 19.23 | 1.41 | 1.17 | 12.97 | 11.87 | 2
UGUAGAAGGGAUAUACAAAG (tested as dual guide RNA, chemistry not given here) [CR003365] | 24.61 | 36.43 | 11.83 | 6.67 | 26.90 | 20.23 | 3
AUAGGAGUAGGGGCUCAGCA (tested as dual guide RNA, chemistry not given here) [CR003383] | 15.35 | 40.47 | 25.12 | 13.70 | 15.70 | 2.07 | 1
AUACCAGUCCAGCAAGGCAG (tested as dual guide RNA, chemistry not given here) [CR003338] | 47.66 | 52.42 | 4.76 | 2.73 | 36.30 | 33.73 | 2
AGACACCAAAUCUUACUGGA (tested as dual guide RNA, chemistry not given here) [CR003367] | 18.67 | 47.11 | 28.44 | 23.37 | 37.33 | 14.03 | 1
UCUAGAACUUUGACCAUCAG (tested as dual guide RNA, chemistry not given here) [CR003345] | 16.01 | 35.02 | 19.00 | 18.45 | 50.65 | 32.30 | 0
GCAACUUACCCAGAGGCAAA (tested as dual guide RNA, chemistry not given here) [CR003356] | 22.19 | 32.21 | 10.03 | 2.67 | 7.27 | 4.70 | 4
AAAUAGACACCAAAUCUUAC (tested as dual guide RNA, chemistry not given here) [CR003366] | 37.26 | 47.36 | 10.10 | 4.07 | 24.53 | 20.47 | 1
CCCAGAGGCAAAUGGCUCCC (tested as dual guide RNA, chemistry not given here) [CR003355] | 23.61 | 30.60 | 6.99 | 1.63 | 12.07 | 10.47 | 1
GAAAGGCUGCUGAUGACACC (tested as dual guide RNA, chemistry not given here) [CR003352] | 22.99 | 27.90 | 4.91 | 5.07 | 16.80 | 11.73 | 2
CCUCCUCUGCCUUGCUGGAC (tested as dual guide RNA, chemistry not given here) [CR003336] | 25.78 | 29.09 | 3.31 | 0.80 | 16.93 | 16.20 | 2
UUUGACCAUCAGAGGACACU (tested as dual guide RNA, chemistry not given here) [CR003344] | 29.54 | 33.87 | 4.32 | 9.20 | 31.50 | 22.40 | 0
UGAAUCCAAGUGUCCUCUGA (tested as dual guide RNA, chemistry not given here) [CR005303] | – | – | – | 0.50 | 35.50 | 35.00 | 1
GGGAUUGGUGACGACAGCCG (tested as dual guide RNA, chemistry not given here) [CR003390] | 23.71 | 28.02 | 4.31 | 1.60 | 20.23 | 18.73 | 1
UUCUUUGGCAACUUACCCAG (tested as dual guide RNA, chemistry not given here) [CR003357] | 37.85 | 43.23 | 5.38 | 0.63 | 25.93 | 25.30 | 3
GCCGUGGUGGAAUAGGAGUA (tested as dual guide RNA, chemistry not given here) [CR003387] | 16.92 | 24.68 | 7.75 | 0.03 | 7.87 | 7.80 | 6
AGGCAGUCCUGCCAUCAAUG (tested as dual guide RNA, chemistry not given here) [CR003348] | 13.21 | 35.53 | 22.32 | 15.80 | 18.00 | 2.30 | 3
AAAGUUCUAGAUGCUGUCCG (tested as dual guide RNA, chemistry not given here) [CR003346] | 15.30 | 48.33 | 33.03 | 14.33 | 19.97 | 5.63 | 0
GGCUGUCGUCACCAAUCCCA (tested as dual guide RNA, chemistry not given here) [CR003391] | 44.19 | 44.81 | 0.61 | 0.30 | 15.47 | 15.20 | 0
ACUGAGGAGGAAUUUGUAGA (tested as dual guide RNA, chemistry not given here) [CR003363] | 16.26 | 31.03 | 14.77 | 4.93 | 16.70 | 11.80 | 4
GCAGGGCGGCAAUGGUGUAG (tested as dual guide RNA, chemistry not given here) [CR003380] | 44.00 | 47.64 | 3.64 | 0.47 | 2.93 | 2.47 | 0
CCCCUACUCCUAUUCCACCA (tested as dual guide RNA, chemistry not given here) [CR003385] | 18.82 | 26.19 | 7.36 | 3.60 | 36.77 | 33.23 | 3
ACGUGUCUUCUCUACACCCA (tested as dual guide RNA, chemistry not given here) [CR005302] | – | – | – | 1.13 | 34.80 | 33.67 | 1
